# In article PMC5407064 (Cell reports, 2017):
# Substitutions are numbered along the chain they refer to.
# What was measured:
# [1] = target: T1, SIRT1 K444E (Homo sapiens, UniProt Q96EB6, K444E); assay: steady-state kinetics; type: biochemical
# T1 sequence (Q96EB6 2-747 K444E): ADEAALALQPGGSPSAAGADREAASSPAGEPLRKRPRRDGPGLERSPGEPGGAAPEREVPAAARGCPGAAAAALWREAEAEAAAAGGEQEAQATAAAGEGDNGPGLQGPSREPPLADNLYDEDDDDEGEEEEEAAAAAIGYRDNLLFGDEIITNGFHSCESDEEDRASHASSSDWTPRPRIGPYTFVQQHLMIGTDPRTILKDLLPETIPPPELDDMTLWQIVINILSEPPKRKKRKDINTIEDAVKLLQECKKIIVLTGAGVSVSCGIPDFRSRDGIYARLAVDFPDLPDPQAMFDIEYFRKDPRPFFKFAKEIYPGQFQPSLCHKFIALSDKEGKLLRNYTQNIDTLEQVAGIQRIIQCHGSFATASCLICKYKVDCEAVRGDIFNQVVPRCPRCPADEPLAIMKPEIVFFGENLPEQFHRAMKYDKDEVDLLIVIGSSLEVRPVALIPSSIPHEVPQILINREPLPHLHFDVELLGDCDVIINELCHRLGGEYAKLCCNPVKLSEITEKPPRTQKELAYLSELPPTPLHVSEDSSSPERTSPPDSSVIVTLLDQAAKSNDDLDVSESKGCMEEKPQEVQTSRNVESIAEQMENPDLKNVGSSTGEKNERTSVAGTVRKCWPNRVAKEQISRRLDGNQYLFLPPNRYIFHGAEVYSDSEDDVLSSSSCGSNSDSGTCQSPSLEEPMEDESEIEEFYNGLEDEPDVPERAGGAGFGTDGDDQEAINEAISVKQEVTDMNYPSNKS
# [2] = target: T2, SIRT1 (Homo sapiens, UniProt Q96EB6); assay: SIRT1 activation assay; type: biochemical
# T2 sequence (Q96EB6 2-747): T1 sequence (Q96EB6 2-747 K444E) with E443K
SMILES,"steady-state kinetics (KM, kcat), FDL SIRT1 assay with varied NAD+ [1]",SIRT1 activation assay (Fig. S4C); activation peak concentration [2] [mM]
NC(=O)c1ccc[n+]([C@@H]2O[C@H](COP(=O)([O-])OP(=O)(O)OC[C@H]3O[C@@H](n4cnc5c(N)ncnc54)[C@H](O)[C@@H]3O)[C@@H](O)[C@H]2O)c1 [NAD^+],K444E SIRT1 is catalytically more active than WT (higher kcat) and has a significantly lower KM for both substrates,
Oc1ccc(/C=C/c2cc(O)cc(O)c2)cc1 [resveratrol],,1
